{"source": "the CATMoS acute toxicity set (Mansouri et al. 2021)", "origin": "cited, not measured here", "data": [{"experiment": "rat acute oral toxicity", "conditions": "in vivo", "from_the_text": "[…]The data set underlying the modeling effort for this project was initially compiled by NICEATM and U.S. EPA’s CCTE. Briefly, LD50 data were collected from rat acute oral systemic toxicity tests, including limit tests, ranges/confidence intervals, and discrete LD50 values. The full data set included 21,200 LD50 entries for 15,688 substances. […] Data were reviewed to ensure that LD50 values with obvious errors in the extracted data such as unit conversion errors (e.g., comma and decimal separator misplacements) were either fixed or removed. After this review, 16,209 LD50 values remained. Many of the chemicals represented had multiple LD50 entries, requiring that a single representative value per Chemical Abstracts Service Registry Number (CASRN) identifier be defined to facilitate modeling efforts. Based on ATWG feedback and to define the representative LD50 as a protective value while accounting for the distribution across multiple LD50s, the median of the lowest quartile was computed using only discrete LD50 values (omitting limit test data and range and confidence interval data). A detailed summary of the data compilation is available online on the NICEATM webpage dedicated to the collaborative modeling project (NTP 2020).\n[…][…] For categorical designations, limit test and range/confidence interval LD50 data were integrated wherever possible. As such, the number of chemicals with end point values/calls varies across the modeling end points (Table 3) based on whether chemicals had representative LD50 values and/or other data. If a chemical had both, the representative value was used to determine categorical calls rather than limit test data. Some data were useable only for certain end points and categories depending on the thresholds. For example, ranges that spanned multiple hazard categories were considered only for the binary (very toxic/nontoxic) end points and omitted from rendering a determination for hazard category assignment.\n[…]The final data set comprising 11,992 chemicals was split into training and evaluation sets […], respectively. This process was performed semirandomly by ordering chemicals based on the five end points (categorical and continuous LD50 values) and partitioning every fourth record into the evaluation set accordingly. This approach was taken to ensure an equivalent distribution of the LD50 values and the different hazard categories between the training and the evaluation sets without supervised sampling of the chemicals based on structures (Figure 1A). The sources of the chemical structures were also kept equivalent between the two sets, with chemical structures obtained from DSSTox, being the highest quality, representing over 75% of each set (Figure 1B).", "units": {"LD50": "mg/kg"}, "values": [{"compound": "CCSP(=O)(CCl)SCC", "LD50": 35}, {"compound": "CCN(O)CC", "LD50": 2190}, {"compound": "C=COC", "LD50": 4900}, {"compound": "CC[N+]1(CC)CCCO1", "LD50": 150}, {"compound": "ClCc1cccnc1", "LD50": 316}, {"compound": "CCCC(C)C1(CC)C(=O)N=C(S)NC1=O", "note": "(centres undefined)", "LD50": 117}, {"compound": "COc1ccccc1N1CCN(CC=Cc2ccc3c(c2)CCC(=O)N3)CC1", "LD50": 500}, {"compound": "CCCc1ccc2c(c1)OCO2", "LD50": 2260}, {"compound": "C/C(=N/Nc1nc(C)cc(C)n1)c1ccccc1C", "LD50": 525}, {"compound": "Nc1ccc2c(c1)C1CCCCC1N2", "note": "(centres undefined)", "LD50": 275}, {"compound": "C=COCCOCC1CO1", "note": "(centres undefined)", "LD50": 2440}, {"compound": "O=S1(=O)CCC(NC(=S)S)C1", "note": "(centres undefined)", "LD50": 1700}, {"compound": "C#CC(=O)C=CC", "LD50": 71}, {"compound": "CCCCCCN", "LD50": 670}, {"compound": "N=C(NN=Cc1ccc(Cl)cc1)NN=Cc1ccc(Cl)cc1", "LD50": 1350}, {"compound": "COc1cccc([C@]2(O)CCCC[C@H]2CN(C)C)c1", "note": "(single isomer, unassigned)", "LD50": 228}, {"compound": "CC1(C)CC2(NC(=O)N(CCCN3CCC(O)CC3)C2=O)c2cc(F)ccc2O1", "note": "(centres undefined)", "LD50": 780}, {"compound": "O=C1OCc2c(Cl)c(Cl)c(Cl)c(Cl)c21", "LD50": 20000}, {"compound": "S=c1[nH]nc(NCNc2n[nH]c(=S)s2)s1", "LD50": 4640}, {"compound": "Cc1cc(C)cc(O)c1", "LD50": 608}, {"compound": "C=CCCC=O", "LD50": 620}, {"compound": "CCOP(=O)(SC(C)CC)N1CCSC1=O", "note": "(centres undefined)", "LD50": 57}, {"compound": "C=C(C)Cn1c(N)cc(=O)n(C)c1=O", "LD50": 1560}, {"compound": "Cc1cc(-n2c(C)nc3ccccc3c2=O)n(-c2ccccc2)n1", "LD50": 1800}, {"compound": "N[C@@H](CC(=O)O)C(=O)O", "LD50": 7940}, {"compound": "NC(=O)c1ccc([N+](=O)[O-])cc1", "LD50": 476}, {"compound": "CCCCCOC(C[n+]1ccccc1)c1ccc(C(C)C)cc1", "note": "(centres undefined)", "LD50": 250}, {"compound": "CCC(=O)O[C@](Cc1ccccc1)(c1ccccc1)[C@H](C)CN(C)C", "LD50": 84}, {"compound": "Cc1cccc(OC(C)C)c1N(C)C(=O)CCl", "LD50": 950}, {"compound": "COc1nccc(C(F)(F)F)c1S(=O)(=O)Cl", "LD50": 3130}, {"compound": "C=CCC1=C(C)C(OC(=O)C2C(C=C(C)C)C2(C)C)CC1=O", "note": "(centres undefined)", "LD50": 685}, {"compound": "CC(C)CC(C)Nc1ccc(Nc2ccccc2)cc1", "note": "(centres undefined)", "LD50": 3580}, {"compound": "NC(=S)NC(N)=S", "LD50": 5}, {"compound": "CC(C)(C)/N=C(\\NC#N)Nc1cccnc1", "LD50": 278}, {"compound": "CCOC(=O)Nc1ccc2c(c1)N(C(=O)CCN(CC)CC)c1ccccc1CC2", "LD50": 138}, {"compound": "CC(C)N(CCC(C#N)(c1ccccc1)c1ccccn1)C(C)C", "note": "(centres undefined)", "LD50": 596}, {"compound": "CC(C)=CCCC(C)CC#N", "note": "(centres undefined)", "LD50": 5300}, {"compound": "CC(C)(C)CC(C)(C)Nc1ncnc(N(CCCCCCNC2CC(C)(C)NC(C)(C)C2)C2CC(C)(C)NC(C)(C)C2)n1", "LD50": 9910}, {"compound": "CCCCCCCCCCCCCCCCCC(=O)NCCC[N+](C)(C)CCO", "LD50": 8100}, {"compound": "CC(=O)Oc1cc(C(C)C)c(OCCN(C)C)cc1C", "LD50": 740}, {"compound": "NC(CO)C(=O)NNCc1ccc(O)c(O)c1O", "note": "(centres undefined)", "LD50": 5300}, {"compound": "COP(=O)(OC)SC", "LD50": 15}, {"compound": "CC(CCO)CCO", "LD50": 7780}, {"compound": "CCC/C=C/C(OCC)OCC", "LD50": 860}, {"compound": "CCOc1ccccc1N1CCN(CCC=Cc2ccc3c(c2)CCC(=O)N3)CC1", "LD50": 500}, {"compound": "CC(=O)OC(C)CC(C)C", "note": "(centres undefined)", "LD50": 6160}, {"compound": "O=C(c1ccc2ccccc2n1)N1CCN=C1Nc1c(Cl)cccc1Cl", "LD50": 44}, {"compound": "O=c1ccc2ccc3occc3c2o1", "LD50": 322}, {"compound": "O=P(OCC(Cl)CCl)(OCC(Cl)CCl)OCC(Cl)CCl", "note": "(centres undefined)", "LD50": 2830}, {"compound": "CC(C)C(=O)C(C)C", "LD50": 3540}, {"compound": "CCC(c1ccccc1)c1c(O)c2ccccc2oc1=O", "note": "(centres undefined)", "LD50": 200}, {"compound": "CCCOP(=S)(OCCC)SCC(=O)N1CCCCC1C", "note": "(centres undefined)", "LD50": 324}, {"compound": "CC[N+]1(CCOC(=O)C(O)(c2ccccc2)c2ccccc2)CCCCC1", "LD50": 4600}, {"compound": "O=C(O)Cc1ccccc1Nc1c(Cl)cc(O)cc1Cl", "LD50": 190}, {"compound": "C=CC=C", "LD50": 5480}, {"compound": "C=CC(=O)OCCOCCOCCOC(=O)C=C", "LD50": 500}, {"compound": "CCOc1ccc(Cl)cc1C(CN(C)C)C(C)CC", "note": "(centres undefined)", "LD50": 632}, {"compound": "CCOC(=O)C(c1c(O)c2ccccc2oc1=O)c1c(O)c2ccccc2oc1=O", "LD50": 840}, {"compound": "CC(CN1c2ccccc2Sc2ccc(S(=O)(=O)N(C)C)cc21)N(C)C", "note": "(centres undefined)", "LD50": 1320}, {"compound": "CCCCOc1ccc(OCC(=O)N(CCN(CC)CC)c2cc(OCC)ccc2OCC)cc1", "LD50": 2400}, {"compound": "CC(=O)Oc1ccc(-c2ccc(F)cc2)cc1C(=O)O", "LD50": 185}, {"compound": "COc1ccc2c(c1OC)C13CCN(C)C(C2)C1(O)CCC(O)C3", "note": "(centres undefined)", "LD50": 339}, {"compound": "Cc1c(Cl)c([N+](=O)[O-])c2nc(C(F)(F)F)[nH]c2c1[N+](=O)[O-]", "LD50": 105}, {"compound": "CN1CCCC(CC2c3ccccc3Sc3ccccc32)C1", "note": "(centres undefined)", "LD50": 1460}]}]}
